The text below walks through data of patent US6656911B2, “Serine protease inhibitors” (Cortech, Inc., priority 1994, dated 2003).

Test [1] deals with T1, human neutrophil elastase (HNE) (Homo sapiens, UniProt P08246).
T1 sequence (P08246 30-267): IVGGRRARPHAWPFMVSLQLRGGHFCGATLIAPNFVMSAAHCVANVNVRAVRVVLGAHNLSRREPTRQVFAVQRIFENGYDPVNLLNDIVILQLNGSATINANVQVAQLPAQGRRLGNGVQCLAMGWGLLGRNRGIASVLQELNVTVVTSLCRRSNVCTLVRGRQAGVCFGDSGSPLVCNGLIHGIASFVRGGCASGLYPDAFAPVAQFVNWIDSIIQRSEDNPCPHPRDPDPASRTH
The experiment in a line: HNE Ki of CE compounds, tested as described in WO 96/16080. The format is biochemical. Conditions: read-out: HNE Ki.

Test [2] relates to polymorphoneucleocyte (PMN). Description: Extracellular Matrix (ECM) degradation assay. The class given is cell-based. As to conditions: PMN's stimulated with opsonized zymosan, 4 hr at 37° C.; for inhibition at 1 µM / ECM DATA % Inhibition 1 uM: 1 uM inhibitor; for inhibition at 5 µM / ECM DATA % Inhibition 5 uM: 5 uM inhibitor. The method, then: Forty-eight well plates on which extracellular matrix had been established were supplied to Cortech by Dr. Simon's group at the State University of New York at Stony Brook. Briefly, the plates were prepared as follows: R22 rat heart smooth muscle cells were seeded into wells at 2.5×10^4 cells/cm. The cells were fed every 4 days with Eagle's Minimal Essential Media supplemented with fetal bovine serum, tryptose phosphate broth, cefotaxime and streptomycin. At confluence, daily supplements of 50 ug/ml ascorbic acid were added for 8 to 10 days during the synthesis of the ECM layer. [^35S]sulfate and [^3H]proline were also added to the culture media to incorporate radiolabel into the matrix. Cells were later lysed with 25 mM NH4OH. Plates were washed three times with water and once with phosphate-buffered saline containing 0.02% NaN3. Plates were stored at 4° C. until use.
Matrix degradation assays were performed as follows: 0.40 ml of Hanks balance salt solution (HBSS) containing 1 or 5 uM test inhibitor (final concentration; diluted from DMSO stock solution; <2% DMSO final concentration) was added to the wells. After 30 minutes, 50 ul of a polymorphoneucleocyte (PMN) suspension was added resulting in 5×10^5 cells/well. PMN's were stimulated with opsonized zymosan. Zymosan particles were washed and suspended in 0.5 ml human serum for 1 hr at 37° C., vortexing every 15 min. The particles were then washed three times with HBSS and added to wells at a ratio of 10 particles/PMN in a volume of 50 ul. After a 4 hr incubation at 37° C., a 100 ul aliquot of the supernatant was withdrawn for scintillation counting. Following removal of the remaining supernatant, the residual ECM was solubilized with 0.5 ml 2M NaOH. The amount of tritium in this solubilized ECM was accessed by scintillation. ECM degradation data are expressed as (soluble counts released/total ECM counts)—(basal counts released without PMN's/total ECM counts).

Usually Ki stands for a dissociation constant, usually derived from enzyme kinetics or from competition with a known ligand. As usually defined, the inhibition is the drop in the measured response relative to a control, in per cent. As to `Cc1cccc(Cc2nnc(C(=O)[C@@H](NC(=O)CN3C(=O)N[C@@H](Cc4ccccc4)C3=O)C(C)C)o2)c1` [CE2154, 5-(S)-Benzyl-2,4-imidazolidinedione-N-[1-(2-[5-(3-methylbenzyl)-1,3,4-oxadiazolyl]carbonyl)-2-(S)-methylpropyl]acetamide], the Ki in test [1] was found to be 10 nM. In test [2], the inhibition at 1 µM worked out at 54.6% and the inhibition at 5 µM came out at 65.4%.
As to “(R,S)-3-Amino-2-oxo-5-methyl-1,4-(1-thiophenodiazepine)-N-[1-(2-[5-(3-methylbenzyl)-1,3,4-oxadiazolyl]carbonyl)-2-(S)-methylpropyl]acetamide [CE2236]”, the Ki in test [1] came to 7.1 nM. Further, in test [2], the “ECM DATA % Inhibition 1 uM” value is 31.9% and the “ECM DATA % Inhibition 5 uM” value is recorded as 31.75%.
For `Cc1cccc(Cc2nnc(C(=O)[C@@H](NC(=O)Cn3c(-c4ccc(F)cc4)ncc(NC(=O)OCc4ccccc4)c3=O)C(C)C)o2)c1` [CE2095, 2-[5-[(Benzyloxycarbonyl)amino]-6-oxo-2-(4-fluorophenyl)-1,6-dihydro-1-pyrimidinyl]-N-[1-(2-[5-(3-methylbenzyl)-1,3,4-oxadiazolyl]carbonyl)-(S)-2-methylpropyl]acetamide], in test [1], the Ki was determined as 0.21 nM. Further, in test [2], the inhibition at 1 µM is 60.4% and the inhibition at 5 µM is 55.6%.
For `Cc1cccc(Cc2nnc(C(=O)[C@@H](NC(=O)CN3C(=O)N(Cc4ccccc4)C(=O)[C@H]3Cc3ccccc3)C(C)C)o2)c1` [CE2151, 1-Benzyl-4-(R)-benzyl-2,5-imidazolidinedione-N-[1-(2-[5-(3-methylbenzyl)-1,3,4-oxadiazolyl]carbonyl)-2-(S)-methylpropyl]acetamide], in that order: 59 nM, 14.2% and -8.3%.
As for `Cc1cccc(Cc2nnc(C(=O)C(NC(=O)CN3C(=O)C(N)N=C(c4ccccc4Cl)c4cc(Cl)ccc43)C(C)C)o2)c1` [CE2229, (R,S)-3-Amino-2-oxo-5-(2-chlorophenyl)-1,4-(2′-chlorobenzodiazepine)-N-[1-(2-[5-(3-methylbenzyl)-1,3,4-oxadiazolyl]carbonyl)-2-(R,S)-methylpropyl]acetamide], in test [1], the inhibition constant Ki stood at 9.5 nM. Moreover, in test [2], the “ECM DATA % Inhibition 1 uM” value stood at 31.25% and the “ECM DATA % Inhibition 5 uM” value came out at 48.2%.
Turning to `Cc1cccc(Cc2nnc(C(=O)[C@@H](NC(=O)CN3C(=O)NC(c4ccncc4)(N4C(=O)CCC4=O)C3=O)C(C)C)o2)c1` (stereo partly drawn) [CE2206, [4-(R,S)-(4-pyridyl)-4-(R,S)-N-succinimidyl-1-2,5-imidazolidinedione-N-[1-2-[5-(3-methylbenzyl)-1,3,4-oxadiazolyl]carbonyl)-2-(S)-methylpropyl]acetamide], the Ki in test [1] was 8.7 nM. In addition, in test [2], the “ECM DATA % Inhibition 1 uM” value was found to be 47.4% and the “ECM DATA % Inhibition 5 uM” value was determined as 62.3%.
On to `Cc1cccc(Cc2nnc(C(=O)C(NC(=O)CN3C(=O)N(Cc4ccccc4)C(=O)[C@@H]3Cc3ccccc3)C(C)C)o2)c1` (stereo partly drawn) [CE2191, 1-Benzyl-4-(S)-benzyl-2,5-imidazolidinedione-N-[1-(2-[5-(3-methylbenzyl)-1,3,4-oxadiazolyl]carbonyl)-2-(R,S)-methylpropyl]acetamide], for which the Ki in test [1] was 85 nM. Besides, in test [2], the “ECM DATA % Inhibition 1 uM” value turned out to be 29.35% and the “ECM DATA % Inhibition 5 uM” value was 30.5%.
For the compound `Cc1cccc(Cc2nnc(C(=O)[C@@H](NC(=O)CN3C(=O)N[C@H](Cc4ccc(O)cc4)C3=O)C(C)C)o2)c1` [CE2255, 4-(R)-(4-Hydroxybenzyl)-2,5-imidazolidinedione-N-[1-(2-[5-(3-methylbenzyl)-1,3,4-oxadiazolyl]carbonyl)-2-(S)-methylpropyl]acetamide], in test [1], the Ki is 18 nM. For the same compound, in test [2], the “ECM DATA % Inhibition 1 uM” value stood at 20.7% and the “ECM DATA % Inhibition 5 uM” value was determined as 42%.
For `CCCCc1nnc(C(=O)C(NC(=O)CN2C(=O)C(N)N=C(c3ccccn3)c3ccccc32)C(C)C)o1` [CE2218, (R,S)-3-Amino-2-oxo-5-(2-pyridyl)-1,4-benzodiazepine-N-[1-(2-[5-(3-methylpropyl)-1,3,4-oxadiazolyl]carbonyl)-2-(R,S)-methylpropyl]acetamide], in that order: 1.6 nM, 30.5% and 33.15%.
For `Cc1ccc(C2=NCC(=O)N(CC(=O)N[C@H](C(=O)c3nnc(Cc4cccc(C)c4)o3)C(C)C)c3ccccc32)cc1` [CE2242, 2-Oxo-5-phenyl-1,4-(4′-methylbenzodiazepine)-N-[1-(2-[5-(3-methylbenzyl)-1,3,4-oxadiazolyl]carbonyl)-2-(S)-methylpropyl]acetamide], in that order: 27 nM, 29.4% and 40.7%.
`Cc1cccc(Cc2nnc(C(=O)[C@@H](NC(=O)Cn3c(-c4ccccn4)nc4ccccc43)C(C)C)o2)c1` [CE2234, 2-(2-Pyridyl)-benzimidazole-N-[1-(2-[5-(3-methylbenzyl)-1,3,4-oxadiazolyl]carbonyl)-2-(S)-methylpropyl]acetamide]: the Ki in test [1] was found to be 796 nM. Also, in test [2], the inhibition at 1 µM came to 39.7% and the inhibition at 5 µM is 35%.
For the compound `Cc1cccc(Cc2nnc(C(=O)C(NC(=O)CN3C(=O)[C@@H](Cc4ccccc4)N(CCN4CCOCC4)C3=O)C(C)C)o2)c1` (stereo partly drawn) [CE2173, 1-(3-Morpholinoethyl)-5-(R)-benzyl-2,4-imidazolidinedione-N-[1-(2-[5-(3-methylbenzyl)-1,3,4-oxadiazolyl]carbonyl)-2-(R,S)-methylpropyl]acetamide], the Ki in test [1] was 6.5 nM. In addition, in test [2], the “ECM DATA % Inhibition 1 uM” value amounted to 35.9% and the “ECM DATA % Inhibition 5 uM” value is on record as 47.1%.
Regarding `Cc1cccc(Cc2nnc(C(=O)[C@@H](NC(=O)CN3C(=O)N[C@H](c4ncc[nH]4)C3=O)C(C)C)o2)c1` [CE2257, 4-(R)-(2-Imidazolyl)-2,5-imidazolidinedione-N-[1-(2-[5-(3-methylbenzyl)-1,3,4-oxadiazolyl]carbonyl)-2-(S)-methylpropyl]acetamide], the Ki in test [1] stood at 30 nM. Moreover, in test [2], the “ECM DATA % Inhibition 1 uM” value is recorded as 48.3% and the “ECM DATA % Inhibition 5 uM” value worked out at 61.4%.
For the compound “(R,S)-3-Amino-2-oxo-5-methyl-1,4-(2′,3′-methylenedioxy-benzodiazepine)-N-[1-(2-[5-(3-methylbenzyl)-1,3,4-oxadiazolyl]carbonyl)-2-(R,S)-methylpropyl]acetamide [CE2225]”, the Ki in test [1] was 8.2 nM. In test [2], the “ECM DATA % Inhibition 1 uM” value was found to be 30.85% and the “ECM DATA % Inhibition 5 uM” value came to 43.45%.
Take `Cc1cccc(Cc2nnc(C(=O)C(NC(=O)CN3C(=O)C(c4ccccc4)N(CCN4CCOCC4)C3=O)C(C)C)o2)c1` [CE2192, 1-(N-Morpholinoethyl)-5-(R,S)-phenyl-2,4-imidazolidinedione-N-[1-(2-[5-(3-methylbenzyl)-1,3,4-oxadiazolyl]carbonyl)-2-(R,S)-methylpropyl]acetamide]: the Ki in test [1] is 7.3 nM. Besides, in test [2], the inhibition at 1 µM stood at 40.8% and the inhibition at 5 µM was determined as 49.7%.
Consider “2-Oxo-5-methyl-1,4-(2-phenyl-1-thiophenodiazepine)-N-[1-(2-[5-(3-methylbenzyl)-1,3,4-oxadiazolyl]carbonyl)-2-(S)-methylpropyl]acetamide [CE2245]”, for which, in test [1], the Ki is 24 nM. Besides, in test [2], the “ECM DATA % Inhibition 1 uM” value is 34.7% and the “ECM DATA % Inhibition 5 uM” value amounted to 39.3%.
In the case of “(R,S)-3-Amino-2-oxo-5-phenyl-1,4-(2′-chlorobenzodiazepine)-N-[1-(2-[5-(3-methylbenzyl)-1,3,4-oxadiazolyl]carbonyl)-2-(R,S)-methylpropyl]acetamide [CE2223]”, in test [1], the Ki was found to be 0.93 nM. In test [2], the “ECM DATA % Inhibition 1 uM” value is 34.15% and the “ECM DATA % Inhibition 5 uM” value is on record as 36.15%.
`COc1ccccc1C1=NCC(=O)N(CC(=O)N[C@H](C(=O)c2nnc(Cc3cccc(C)c3)o2)C(C)C)c2ccccc21` [CE2250, 2-Oxo-5-(2-methoxyphenyl)-1,4-benzodiazepine-N-[1-(2-[5-(3-methylbenzyl)-1,3,4-oxadiazolyl]carbonyl)-2-(S)-methylpropyl]acetamide]: the inhibition constant (Ki) in test [1] was 6.9 nM. In test [2], the inhibition at 1 µM was found to be 27.4% and the inhibition at 5 µM is 48.6%.
